Results on 3 molecules are retold here after publication PMC60990 (BMC Microbiology, 2001).

Test [1] addresses T1, PfPP5 (Plasmodium falciparum, UniProt Q8WQR3).
T1 sequence (Q8WQR3 1-594): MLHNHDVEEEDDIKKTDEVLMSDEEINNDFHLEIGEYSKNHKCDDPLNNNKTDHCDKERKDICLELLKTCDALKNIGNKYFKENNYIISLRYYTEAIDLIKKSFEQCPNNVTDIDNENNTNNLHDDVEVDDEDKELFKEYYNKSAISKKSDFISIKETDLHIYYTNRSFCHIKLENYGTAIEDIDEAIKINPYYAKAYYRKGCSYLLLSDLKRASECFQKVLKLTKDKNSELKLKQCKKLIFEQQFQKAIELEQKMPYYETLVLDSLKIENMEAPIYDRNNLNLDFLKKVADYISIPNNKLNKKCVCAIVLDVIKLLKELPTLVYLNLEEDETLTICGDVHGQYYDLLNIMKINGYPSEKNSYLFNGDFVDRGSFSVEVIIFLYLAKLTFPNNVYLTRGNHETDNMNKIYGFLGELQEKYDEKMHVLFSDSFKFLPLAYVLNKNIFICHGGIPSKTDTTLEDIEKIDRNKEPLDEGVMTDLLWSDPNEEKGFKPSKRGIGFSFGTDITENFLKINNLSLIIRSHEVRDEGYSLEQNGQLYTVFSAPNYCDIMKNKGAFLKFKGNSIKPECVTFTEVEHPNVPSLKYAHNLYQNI
Description: […]-phosphohistone dephosphorylation, phosphomolybdate extraction. In kind it is biochemical. The note with it: activator, 32P-phosphohistone, pH 7.5, 37°C.

Test [2] concerns the target T1, PfPP5. The description is as above. In kind it is biochemical. The note with it: pH 7.5, 37°C.

Structures are written as SMILES.

Take `CCCCC/C=C\C/C=C\C/C=C\C/C=C\CCCC(=O)O` [arachidonic acid]: in test [1] (about 70 μM fatty acid), the “fold stimulation of activity” value is reported as ~ 3 fold.
On to `CCCCCCCC/C=C\CCCCCCCC(=O)O` [oleic acid], for which the “fold stimulation of activity” value in test [1] (about 80 μM fatty acid) is reported as ~ 3 fold.
As to `CCCCCCCCCCCCCCCCCC(=O)O` [stearic acid], in test [2], the “32P-phosphohistone dephosphorylation, phosphomolybdate extraction” value is “stearic acid, a saturated fatty acid, did not appreciably stimulate PfPP5 activity”.
